Results on 3 molecules are retold here after patent US9790504B2, “Anti-tumor therapy” (The University of Chicago, priority 2013, dated 2017).

In assay [1] the test system is Stat1. Nature of the assay: Western blot of interferon-mediated Stat1 activation with Jak inhibitors. Format: cell-based. The note with it: β- and γ-interferon (Type I and Type II IFN) signaling, SCC61 cells. As to the method: (§1) Treatment with TG and Rux inhibited β- and γ-interferon-mediated activation of Stat1 and Stat3;
(§2) Total cellular protein was extracted in radioimmunoprecipitation assay buffer with protease inhibitors added (1×PBS, 1% NP40, 0.5% sodium deoxycholate, 0.1% SDS, 1 mmol/L Na3VO4, 2 μg/mL aprotinin, 1 mmol/L phenylmethylsulfonyl fluoride). All samples were normalized by protein concentration using Bradford reagent and standard solution of bovine serum albumin (1 mg/mL). Concentration of all samples was adjusted to 1 mg/mL and equal amount of protein was loaded in each well. For total proteins, 10 μg of protein was loaded per well. Proteins were separated on 7.5%-12% SDS-PAGE (depending on molecular mass of protein) and transferred to polyvinylidene difluoride membranes (PVDF). Total proteins were detected using the rabbit or goat primary Abs. For loading control, the antibodies for actin (I-19) and glyceraldehyde-3-phosphate dehydrogenase (GAPDH; FL-335) were used. All antibodies were purchased from Santa Cruz Biotechnology. Images were quantified with ImageJ software by integration pixel values across the area of specific bands.
(§3) The effects of Jak1/2 and Jak2 inhibitors were investigated on the activation of Stat1 and Stat3 in the context of Type I and Type II IFN signaling. […]
For orientation: A western blot detects proteins with antibodies after separation by electrophoresis.

Assay [2] relates to Stat3. Put plainly: Western blot of interferon-mediated Stat3 activation with Jak inhibitors. The format is cell-based. The note with it: β- and γ-interferon (Type I and Type II IFN) signaling, SCC61 cells. As to the method:
as §1, §2, §3

The test system of assay [3] is different cell lines. Nature of the assay: Suppression of tumor growth in different cell lines. Format: cell-based. The settings on record: data not shown.
Assay [4] deals with lung cancer cell lines. Put plainly: Clonogenic assay, sensitivity of lung cancer cell lines to drug. Format: cell-based. As to the method: (§4) To screen the candidate interferon-stimulated genes, a panel of fifteen individual cancer cell lines were selected from those available in our lab, the ATCC, or affiliated laboratories (see Table No. 3, below). These cell lines were characterized for relative radioresistance using a clonogenic assay. Briefly, the cells were cultured in their appropriate media at 5% CO2 at 37° C. Optimal cell plating concentrations for a p60 dish were determined for each cell line. The majority of cell lines were plated in triplicate at concentrations of 100 cells/plate for control, 1000 cells/plate for 2 Gy, 2000 cells/plate for 5 Gy, and 3000 cells/plate for 8 Gy. Plates were irradiated 24 hours after plating with either 2, 5, or 8 Gy using a Nordion Gammacell ^60Co irradiator operating at a dose rate of ˜18 Gy/minute. Cells were allowed to grow for 10-21 days (depending on the cell line) until colonies were >50 cells. Plates were then fixed with formalin and stained with crystal violet. Colonies with more than 50 cells were counted. Clonogenic survival for Clonogenic data was obtained for all cell lines tested in screen.
In subsequent experiments, 18 lung cancer cell lines were tested for sensitivity to the Jak2 inhibitor SAR302503 (TG) using a clonogenic assay. […] Further, radioresistance was positively correlated with resistance to Jak2 suppression in 11 cell lines. […]

Assay [5] has as its system H2030 cells. Put plainly: Clonogenic assay, ionizing radiation plus TG. The format is cell-based. The note with it: 5 Gy+1 μM TG; most radioresistant cells. As to the method: as §4
In subsequent experiments, 18 lung cancer cell lines were tested for sensitivity to the Jak2 inhibitor SAR302503 (TG) using a clonogenic assay. […] Further, radioresistance was positively correlated with resistance to Jak2 suppression in 11 cell lines.

Assay [6] concerns CW22Rv1 (pStat3-positive) xenografts. Put plainly: Xenograft in nude mice treated by ionizing radiation, TG, or their combination. The format is in vivo. The note with it: constitutively active Jak/Stat signaling. As to the method: (§5) The relative sensitivity of lung cancer cell lines to TG and etoposide—one of the most common drugs in adjuvant chemotherapy of lung cancer was also tested. Subgroups of cell lines were found with relatively high resistance to etoposide (SF>0.5) but relatively sensitive to TG (0.1<SF<0.2; see FIG. 8). As proof of principle, two isogenic cell lines CWRR1 (pStat3-negative, without constitutive activation of Jak/Stat-signaling) and CW22Rv1 (with constitutively active Jak/Stat signaling) were established as xenografts in nude mice and treated by ionizing radiation, TG, or their combination.

Assay [7] relates to CWRR1 (pStat3-negative) xenografts. The assay is described as above. Format: in vivo. The settings on record: without constitutive activation of Jak/Stat signaling. As to the method:
as §5

Assay [8] concerns two lung cancer cell lines. The settings on record: associated with suppression of the Stat3 pathway; cited from earlier work.

Molecules are shown by their SMILES. “Also recorded” adds a separate entry of the source. Where only a bound is given, the exact number is not on record here.

Take `Cc1cnc(Nc2ccc(OCCN3CCCC3)cc2)nc1Nc1cccc(S(=O)(=O)NC(C)(C)C)c1` [TG]: the “phosphorylation (activation) of Stat1” value in assay [1] is listed as “suppressed; also recorded: inhibited”. Further, the “phosphorylation (activation) of Stat3” value in assay [2] was “suppressed; also recorded: inhibited”. Besides, the “suppression of tumor growth compared to Ruxolitinib” value in assay [3] is “more effectively suppressed tumor growth compared to Ruxolitinib”. Further, in assay [4] (7 relatively radioresistant cell lines of 18 lung cancer cell lines, clonogenic assay), the “sensitivity to TG” value is listed as “high sensitivity”. Moreover, the clonogenic colonies result in assay [5] is recorded as “no clonogenic colonies formed”. Also, the “sensitization to ionizing radiation” value in assay [6] is “successfully sensitized”; in assay [7], “not sensitized”.
Take `Cc1cnc(Nc2ccc(N3CCN(C)CC3)cc2)nc1Nc1cccc(S(=O)(=O)NC(C)(C)C)c1` [TG101209]: the radiosensitizing effects result in assay [8] is “radiosensitizing effects”.
On to `COc1cc([C@@H]2c3cc4c(cc3[C@@H](O[C@@H]3O[C@@H]5CO[C@@H](C)O[C@H]5[C@H](O)[C@H]3O)[C@H]3COC(=O)[C@H]23)OCO4)cc(OC)c1O` [etoposide], for which the “SF (surviving fraction)” value in assay [4] (subgroups of lung cancer cell lines with high resistance to etoposide but relatively sensitive to TG) is given as > 0.5.
